From ChEMBL document CHEMBL5252651, “Discovery of Bioactive Metabolites by Acidic Stress to a Geldanamycin Producer, Streptomyces samsunensis” (J Nat Prod, 2023)
Calls of active or inactive are those of the source.

What was measured:
Type in all cases: functional, organism-based
Staphylococcus aureus [1] = experiment: Antibacterial activity against methicillin-resistant Staphylococcus aureus USA300 LAC assessed as bacterial growth inhibition at 5 ug/ml incubated for 22 hrs by microplate reader analysis; conditions: dose 5.0 µg/ml
Staphylococcus = experiment: Antivirulence activity against methicillin-resistant Staphylococcus aureus USA300 LAC assessed as inhibition of Phenol soluble modulin production at 5 ug/ml incubated for 22 hrs by LC-MS analysis; conditions: dose 5.0 µg/ml
Staphylococcus aureus [2] = experiment: Anti-biofilm activity against methicillin-resistant Staphylococcus aureus USA300 LAC assessed as inhibition of biofilm formation incubated for 22 hrs by crystal violet staining based assay
Staphylococcus aureus [3] = experiment: Antibacterial activity against methicillin-resistant Staphylococcus aureus USA300 LAC assessed as bacterial growth inhibition at 10 ug/ml incubated for 22 hrs by microplate reader analysis; conditions: dose 10.0 µg/ml
Staphylococcus aureus [4] = experiment: Antivirulence activity against methicillin-resistant Staphylococcus aureus USA300 LAC assessed as change in RNAIII transcriptional level at 10 ug/ml incubated for 8 to 16 hrs by qRT-PCR analysis; conditions: dose 10.0 µg/ml, time 8-16 hrs
Staphylococcus aureus [5] = experiment: Antivirulence activity against methicillin-resistant Staphylococcus aureus USA300 LAC assessed as change in […] transcriptional level at 10 ug/ml incubated for 8 to 16 hrs by qRT-PCR analysis; conditions: dose 10.0 µg/ml, time 8-16 hrs

COc1c(-c2ccccc2)cc(O[C@@H]2O[C@H](C(=O)O)[C@@H](O)[C@H](O)[C@H]2O)c(-c2ccccc2)c1O
inactive: Activity (Staphylococcus aureus [1]) | inhibition (Staphylococcus) | Activity (Staphylococcus aureus [2])

CC(=O)Nc1cc(O)cc(C[C@@H](C)C(=O)O)c1
inactive: Activity (Staphylococcus aureus [1]) | inhibition (Staphylococcus) | Activity (Staphylococcus aureus [2])

CO[C@@H](C[C@H](C)Cc1cc(O)cc(NC(C)=O)c1)[C@H](O)[C@H](C)C(=O)O
inactive: Activity (Staphylococcus aureus [1]) | Activity (Staphylococcus aureus [3]) | Activity (Staphylococcus aureus [4]) | inhibition (Staphylococcus) | Activity (Staphylococcus aureus [2]) | Activity (Staphylococcus aureus [5])

O=C(O)/C=C/C1=C(c2cccc(O)c2)C(=O)CC[C@H]1O
inactive: Activity (Staphylococcus aureus [1]) | inhibition (Staphylococcus) | Activity (Staphylococcus aureus [2])

COC1=C2C[C@@H](C)C[C@H](OC)[C@H](O)[C@@H](C)/C=C(\C)[C@H](OC(N)=O)[C@@H](OC)/C=C\C=C(/C)C(=O)NC(=CC1=O)C2=O
inactive: Activity (Staphylococcus aureus [1]) | Activity (Staphylococcus aureus [3]) | Activity (Staphylococcus aureus [4]) | inhibition (Staphylococcus) | Activity (Staphylococcus aureus [2]) | Activity (Staphylococcus aureus [5])

CO[C@H]1C[C@H](C)CC2=C(O)C(=O)C=C(NC(=O)/C(C)=C/[C@@H](O)C[C@H](OC)[C@@H](OC(N)=O)/C(C)=C/[C@H](C)[C@H]1O)C2=O
inactive: Activity (Staphylococcus aureus [1]) | inhibition (Staphylococcus) | Activity (Staphylococcus aureus [2])

CO[C@H]1/C=C\C=C(/C)C(=O)NC2=CC(=O)C(O)=C(C[C@@H](C)C[C@H](OC)[C@H](O)[C@@H](C)/C=C(\C)[C@@H]1OC(N)=O)C2=O
inactive: Activity (Staphylococcus aureus [1]) | Activity (Staphylococcus aureus [3]) | Activity (Staphylococcus aureus [4]) | inhibition (Staphylococcus) | Activity (Staphylococcus aureus [2]) | Activity (Staphylococcus aureus [5])

CO[C@H]1C[C@H](C)CC2=C(O)C(=O)C=C(NC(=O)/C(C)=C/[C@H](O)C[C@H](OC)[C@@H](OC(N)=O)/C(C)=C/[C@H](C)[C@H]1O)C2=O
inactive: Activity (Staphylococcus aureus [1]) | inhibition (Staphylococcus) | Activity (Staphylococcus aureus [2])

CO[C@@H](C[C@H](C)Cc1cc(O)cc(NC(C)=O)c1)C(=O)O
inactive: Activity (Staphylococcus aureus [1]) | inhibition (Staphylococcus) | Activity (Staphylococcus aureus [2])

CO[C@H]1/C=C\C=C(/C)C(=O)Nc2cc(O)c(O)c(c2O)C[C@@H](C)C[C@H](OC)[C@H](O)[C@@H](C)/C=C(\C)[C@@H]1OC(N)=O
inactive: Activity (Staphylococcus aureus [1]) | inhibition (Staphylococcus) | Activity (Staphylococcus aureus [2])

Cc1cc(C[C@H](NC(=O)/C=C/C=C/CO)C(=O)O)ccc1O
inactive: Activity (Staphylococcus aureus [1]) | inhibition (Staphylococcus) | Activity (Staphylococcus aureus [2])
